Measurements: patent US20250235476A1, “METHODS AND COMPOSITIONS THAT ARE ALTERNATIVES TO ANTIBIOTICS” (priority 2022, published 2025)

Tested on: non-specific upper respiratory infection (URI)
Assay: Randomized double-blind placebo-controlled clinical trial: Days To Recovery (DTR)
Assay type: in vivo, human
Details: added to EZC during acute phase of illness
Protocol: Methods: A total of 360 patients across the United States were enrolled and randomized in a double-blind manner across two intervention groups, EZC, EZCD, and one placebo group. The study was conducted utilizing a smartphone-based app to screen, enroll and capture study data of the participants. Once a study participant reported the first symptoms of a URI, they were advised to take the intervention as directed and complete the daily symptom survey score until their symptoms resolved.
A total of 360 individuals, male or female over 18 years old, were enrolled by a third-party clinical research organization (CRO), to participate in the study. […] The placebo was composed of rice concentrate.
The study was conducted with the CRO's technology platform utilized to screen, enroll and capture study data of the participants.
Once a study participant reported the first symptoms of a URI, they were advised to take the intervention (i.e., placebo, EZC, or EZCD) taper dosed over a five-day period.
DTR is a metric that measures the total number of days in which a patient is experiencing symptoms of an illness while taking the intervention or placebo. DTR also directly lends itself for use in a log-rank analysis, which is used to compute statistical significance.
The primary limitation of DTR arises from the heterogeneous nature of the illness and the patient's unique recovery. […]

## vitamin D
  effect of addition of vitamin D on illness duration or symptom severity: neither benefited nor harmed
